Laboratory results as given in paper PMC5218480 (PLoS ONE, 2017).

Test system: MV-4-11 cells
Experiment: Gene expression microarray analysis (Affymetrix PrimeView) and GSEA
Type: cell-based, human
Design: RFU PODN (11730768_x_at) / Fold change /veh PODN (11730768_x_at) / RFU LINC00158 (11744669_a_at) / Fold change /veh LINC00158 (11744669_a_at) / RFU DUSP10 (11751237_a_at) / Fold change /veh DUSP10 (11751237_a_at) / RFU ID3 (11757404_x_at) / Fold change /veh ID3 (11757404_x_at) / RFU PLEKHG5 (11737974_s_at) / Fold change /veh PLEKHG5 (11737974_s_at) / RFU LRRC4B (11730491_at) / Fold change /veh LRRC4B (11730491_at) / RFU GIMAP4 (11747438_a_at) / Fold change /veh GIMAP4 (11747438_a_at) / RFU KRT8 (11758183_x_at) / Fold change /veh KRT8 (11758183_x_at) / RFU CNN1 (11734310_a_at) / Fold change /veh CNN1 (11734310_a_at) / RFU VPS37D (11726825_at) / Fold change /veh VPS37D (11726825_at) / RFU C10orf10 (11716522_x_at) / Fold change /veh C10orf10 (11716522_x_at) / RFU KIR2DL2 /// KIR2DL4 /// KIR2DL5A /// KIR2DL5B /// KIR2DS1 /// KIR2DS2 /// KIR2DS3 /// KIR2DS4 /// KIR3DL3 /// KIR3DL3 /// KIR3DS1 (11738374_at) / Fold change /veh KIR2DL2 /// KIR2DL4 /// KIR2DL5A /// KIR2DL5B /// KIR2DS1 /// KIR2DS2 /// KIR2DS3 /// KIR2DS4 /// KIR3DL3 /// KIR3DL3 /// KIR3DS1 (11738374_at) / RFU C1QL1 (11718748_at) / Fold change /veh C1QL1 (11718748_at) / RFU TMPRSS4 (11747572_a_at) / Fold change /veh TMPRSS4 (11747572_a_at) / RFU HAMP (11756126_x_at) / Fold change /veh HAMP (11756126_x_at) / RFU RNFT2 (11725882_a_at) / Fold change /veh RNFT2 (11725882_a_at) / RFU NR4A2 (11747474_a_at) / Fold change /veh NR4A2 (11747474_a_at) / RFU ABCC12 (11746883_a_at) / Fold change /veh ABCC12 (11746883_a_at) / RFU TMEM136 (11760407_x_at) / Fold change /veh TMEM136 (11760407_x_at) / RFU CLDN22 /// WWC2 (11732394_at) / Fold change /veh CLDN22 /// WWC2 (11732394_at) / RFU HLA-DPB1 (11760878_x_at) / Fold change /veh HLA-DPB1 (11760878_x_at) / RFU SPINT1 (11716480_a_at) / Fold change /veh SPINT1 (11716480_a_at) / RFU GAP43 (11754022_s_at) / Fold change /veh GAP43 (11754022_s_at) / RFU A4GNT (11735810_at) / Fold change /veh A4GNT (11735810_at) / RFU PRB3 (11715151_x_at) / Fold change /veh PRB3 (11715151_x_at) / RFU TUBB4B (11761932_at) / Fold change /veh TUBB4B (11761932_at) / RFU CAPN14 (11732068_a_at) / Fold change /veh CAPN14 (11732068_a_at) / RFU TMCC2 (11721928_a_at) / Fold change /veh TMCC2 (11721928_a_at) / RFU IRGQ (11745062_a_at) / Fold change /veh IRGQ (11745062_a_at) / RFU FAM174B (11720279_a_at) / Fold change /veh FAM174B (11720279_a_at) / RFU TMPRSS4 (11748680_a_at) / Fold change /veh TMPRSS4 (11748680_a_at) / RFU FAM212B (11763350_a_at) / Fold change /veh FAM212B (11763350_a_at) / RFU PLEKHG5 (11743358_a_at) / Fold change /veh PLEKHG5 (11743358_a_at) / RFU ZSCAN30 (11745921_a_at) / Fold change /veh ZSCAN30 (11745921_a_at) / RFU CMKLR1 (11741424_a_at) / Fold change /veh CMKLR1 (11741424_a_at) / RFU LOC101060620 /// MAPK8IP1 (11723275_at) / Fold change /veh LOC101060620 /// MAPK8IP1 (11723275_at) / RFU SPTSSB (11747773_x_at) / Fold change /veh SPTSSB (11747773_x_at) / RFU PRSS12 (11739890_at) / Fold change /veh PRSS12 (11739890_at) / RFU BIN1 (11741810_x_at) / Fold change /veh BIN1 (11741810_x_at) / RFU WNT11 (11732464_a_at) / Fold change /veh WNT11 (11732464_a_at) / RFU C10orf10 (11716521_a_at) / Fold change /veh C10orf10 (11716521_a_at) / RFU C5orf56 (11738089_at) / Fold change /veh C5orf56 (11738089_at) / RFU CYB561 (11721691_x_at) / Fold change /veh CYB561 (11721691_x_at) / RFU ANKRD19P (11752326_a_at) / Fold change /veh ANKRD19P (11752326_a_at) / RFU OR2T12 /// OR2T33 /// OR2T8 (11738714_s_at) / Fold change /veh OR2T12 /// OR2T33 /// OR2T8 (11738714_s_at) / RFU VCAN (11748164_a_at) / Fold change /veh VCAN (11748164_a_at) / RFU JSRP1 (11732532_at) / Fold change /veh JSRP1 (11732532_at) / RFU KRTAP10-11 (11738290_x_at) / Fold change /veh KRTAP10-11 (11738290_x_at) / RFU MYO3A (11730013_a_at) / Fold change /veh MYO3A (11730013_a_at) / RFU EBF3 (11725865_a_at) / Fold change /veh EBF3 (11725865_a_at) / RFU CAMK2N1 (11719241_x_at) / Fold change /veh CAMK2N1 (11719241_x_at) / RFU C5orf56 (11738088_a_at) / Fold change /veh C5orf56 (11738088_a_at) / RFU OLFML3 (11715873_a_at) / Fold change /veh OLFML3 (11715873_a_at) / RFU LOC100653217 /// NTM (11731650_a_at) / Fold change /veh LOC100653217 /// NTM (11731650_a_at) / RFU MAPK11 (11762145_a_at) / Fold change /veh MAPK11 (11762145_a_at) / RFU FIZ1 (11724087_x_at) / Fold change /veh FIZ1 (11724087_x_at) / RFU OASL (11726364_x_at) / Fold change /veh OASL (11726364_x_at) / RFU SOX15 (11748057_x_at) / Fold change /veh SOX15 (11748057_x_at) / RFU CD79A (11719716_a_at) / Fold change /veh CD79A (11719716_a_at) / RFU HIST1H1D (11736915_at) / Fold change /veh HIST1H1D (11736915_at) / RFU CASKIN2 (11723855_a_at) / Fold change /veh CASKIN2 (11723855_a_at) / RFU LOC730098 (11760151_x_at) / Fold change /veh LOC730098 (11760151_x_at) / RFU OR4N2 (11742367_at) / Fold change /veh OR4N2 (11742367_at) / RFU PRRT2 (11749266_a_at) / Fold change /veh PRRT2 (11749266_a_at) / RFU SNX32 (11753110_a_at) / Fold change /veh SNX32 (11753110_a_at) / RFU CDHR5 (11726645_a_at) / Fold change /veh CDHR5 (11726645_a_at) / RFU RCAN1 (11760418_a_at) / Fold change /veh RCAN1 (11760418_a_at) / RFU FAM167A (11723789_a_at) / Fold change /veh FAM167A (11723789_a_at) / RFU FAM26E (11764081_at) / Fold change /veh FAM26E (11764081_at) / RFU ISYNA1 (11749810_s_at) / Fold change /veh ISYNA1 (11749810_s_at) / RFU ACY1 (11761880_at) / Fold change /veh ACY1 (11761880_at) / RFU 11764098_at / Fold change /veh 11764098_at / RFU SAMD14 (11745864_x_at) / Fold change /veh SAMD14 (11745864_x_at) / RFU NPB (11741838_a_at) / Fold change /veh NPB (11741838_a_at) / RFU TMPRSS6 (11731388_a_at) / Fold change /veh TMPRSS6 (11731388_a_at) / RFU KRTAP10-2 (11738614_at) / Fold change /veh KRTAP10-2 (11738614_at) / RFU ARHGAP8 /// PRR5-ARHGAP8 (11727945_x_at) / Fold change /veh ARHGAP8 /// PRR5-ARHGAP8 (11727945_x_at) / RFU KRTAP5-7 /// NADSYN1 (11734609_at) / Fold change /veh KRTAP5-7 /// NADSYN1 (11734609_at) / RFU RASL12 (11751679_a_at) / Fold change /veh RASL12 (11751679_a_at) / RFU CDKN2B (11736163_a_at) / Fold change /veh CDKN2B (11736163_a_at) / RFU PRF1 (11729649_at) / Fold change /veh PRF1 (11729649_at) / RFU, ZNF638 /// ZNF638-IT1 / Fold change vs veh, ZNF638 /// ZNF638-IT1 / RFU, PANK3 / Fold change vs veh, PANK3 / RFU, SH3YL1 / Fold change vs veh, SH3YL1 / RFU, ZEB2 / Fold change vs veh, ZEB2 / RFU, NRIP1 / Fold change vs veh, NRIP1 / RFU, PTTG1IP / Fold change vs veh, PTTG1IP / RFU, CAPN2 / Fold change vs veh, CAPN2 / RFU, MED14 / Fold change vs veh, MED14 / RFU, SNORA58 / Fold change vs veh, SNORA58 / RFU, C1orf63 / Fold change vs veh, C1orf63 / RFU, LRRFIP1 / Fold change vs veh, LRRFIP1 / RFU, NDUFAF7 / Fold change vs veh, NDUFAF7 / RFU, SLC12A2 / Fold change vs veh, SLC12A2 / RFU, IBTK / Fold change vs veh, IBTK / RFU, ESF1 / Fold change vs veh, ESF1 / Fold change vs veh, TMEM50B / RFU, TAOK1 / Fold change vs veh, TAOK1 / RFU, ACBD3 / Fold change vs veh, ACBD3 / RFU, TMA16 / Fold change vs veh, TMA16 / RFU, RWDD3 / Fold change vs veh, RWDD3 / RFU, BCAT1 / Fold change vs veh, BCAT1 / RFU, EDEM3 / Fold change vs veh, EDEM3 / RFU, TMEM33 / Fold change vs veh, TMEM33 / RFU, WDR75 / Fold change vs veh, WDR75 / RFU, AHCTF1 / Fold change vs veh, AHCTF1 / RFU, TFRC / Fold change vs veh, TFRC / RFU, ZDHHC17 / Fold change vs veh, ZDHHC17 / RFU, NOM1 / Fold change vs veh, NOM1 / RFU, ARL8B / Fold change vs veh, ARL8B / RFU, ZBTB11 / Fold change vs veh, ZBTB11 / RFU, TAMM41 / Fold change vs veh, TAMM41 / RFU, KIAA1704 /// LOC100996395 / Fold change vs veh, KIAA1704 /// LOC100996395 / RFU, ING1 / Fold change vs veh, ING1 / RFU, TRMT61B / Fold change vs veh, TRMT61B / RFU, FUBP3 / Fold change vs veh, FUBP3 / RFU, TP53 / Fold change vs veh, TP53 / RFU, TNKS2 / Fold change vs veh, TNKS2 / RFU, ZFP14 / Fold change vs veh, ZFP14 / RFU, ACTR2 / Fold change vs veh, ACTR2 / RFU, PPP3R1 / Fold change vs veh, PPP3R1 / RFU, PIK3R1 / Fold change vs veh, PIK3R1 / RFU, HNRNPA1 / Fold change vs veh, HNRNPA1 / RFU, RNF170 / Fold change vs veh, RNF170 / RFU, ZNF28 / Fold change vs veh, ZNF28 / RFU, RNGTT / Fold change vs veh, RNGTT / RFU, OGT / Fold change vs veh, OGT / RFU, BRD1 / Fold change vs veh, BRD1 / RFU, MARS / Fold change vs veh, MARS / RFU, ZNF655 / Fold change vs veh, ZNF655 / RFU, FAHD1 / Fold change vs veh, FAHD1 / RFU, BDP1 / Fold change vs veh, BDP1 / RFU, LRRCC1 / Fold change vs veh, LRRCC1 / RFU, ARID1A / Fold change vs veh, ARID1A / RFU, ZNF146 / Fold change vs veh, ZNF146 / RFU, ZNF330 / Fold change vs veh, ZNF330 / RFU, GPN3 / Fold change vs veh, GPN3 / RFU, C9orf123 / Fold change vs veh, C9orf123 / RFU, N4BP2L2 / Fold change vs veh, N4BP2L2 / RFU, ARFIP1 / Fold change vs veh, ARFIP1 / RFU, FAM179B / Fold change vs veh, FAM179B / RFU, BCL10 / Fold change vs veh, BCL10 / RFU, UHRF1BP1L / Fold change vs veh, UHRF1BP1L / RFU, BET1 / Fold change vs veh, BET1 / RFU, CNOT2 / Fold change vs veh, CNOT2 / RFU, ZNF268 / Fold change vs veh, ZNF268 / Fold change vs veh, ZNF507 / RFU, DGCR2 / Fold change vs veh, DGCR2 / RFU, WDSUB1 / Fold change vs veh, WDSUB1 / Fold change vs veh, HSP90B1 /// MIR3652 / RFU, ADSS / Fold change vs veh, ADSS / RFU, GK / Fold change vs veh, GK / RFU, ZNF148 / Fold change vs veh, ZNF148 / RFU, TAF9 / Fold change vs veh, TAF9 / RFU, SLC1A5 / Fold change vs veh, SLC1A5 / RFU, SLMO2 / Fold change vs veh, SLMO2 / RFU, ABCC4 / Fold change vs veh, ABCC4 / RFU, LOC101060439 /// RAP1B / Fold change vs veh, LOC101060439 /// RAP1B / RFU, RFX7 / Fold change vs veh, RFX7 / RFU, GTPBP10 / Fold change vs veh, GTPBP10 / RFU, CNEP1R1 / Fold change vs veh, CNEP1R1 / RFU, BIVM-ERCC5 /// ERCC5 / Fold change vs veh, BIVM-ERCC5 /// ERCC5 / RFU, ILF3 / Fold change vs veh, ILF3 / RFU 11762660_at / Fold change /veh 11762660_at / RFU VCAN (11757783_s_at) / Fold change /veh VCAN (11757783_s_at) / RFU DDX43 (11728927_at) / Fold change /veh DDX43 (11728927_at) / RFU KRT8 (11758188_x_at) / Fold change /veh KRT8 (11758188_x_at) / RFU NKD1 (11759106_at) / Fold change /veh NKD1 (11759106_at) / RFU SRD5A1 (11742802_a_at) / Fold change /veh SRD5A1 (11742802_a_at) / RFU TPSAB1 /// TPSB2 (11721975_s_at) / Fold change /veh TPSAB1 /// TPSB2 (11721975_s_at) / RFU GSTM3 (11746129_a_at) / Fold change /veh GSTM3 (11746129_a_at) / RFU IL23R (11737362_x_at) / Fold change /veh IL23R (11737362_x_at) / RFU TMEM51 (11727254_a_at) / Fold change /veh TMEM51 (11727254_a_at) / RFU PIWIL2 (11732686_x_at) / Fold change /veh PIWIL2 (11732686_x_at) / RFU ORM1 (11744905_x_at) / Fold change /veh ORM1 (11744905_x_at) / RFU CCDC152 (11743942_at) / Fold change /veh CCDC152 (11743942_at) / RFU ECM1 (11717891_a_at) / Fold change /veh ECM1 (11717891_a_at) / RFU IL23R (11748794_a_at) / Fold change /veh IL23R (11748794_a_at) / RFU TNFAIP8L3 (11732012_x_at) / Fold change /veh TNFAIP8L3 (11732012_x_at) / RFU MBOAT4 (11741988_at) / Fold change /veh MBOAT4 (11741988_at) / RFU 11764193_at / Fold change /veh 11764193_at / RFU TMEM53 (11763286_at) / Fold change /veh TMEM53 (11763286_at) / RFU MAGEB2 (11727129_at) / Fold change /veh MAGEB2 (11727129_at) / RFU TMEM200A (11744735_a_at) / Fold change /veh TMEM200A (11744735_a_at) / RFU CCDC152 (11751479_a_at) / Fold change /veh CCDC152 (11751479_a_at) / RFU FAM211A (11726209_a_at) / Fold change /veh FAM211A (11726209_a_at) / RFU RGS16 (11746705_a_at) / Fold change /veh RGS16 (11746705_a_at) / RFU VCAN (11755009_s_at) / Fold change /veh VCAN (11755009_s_at) / RFU RHOB (11743442_s_at) / Fold change /veh RHOB (11743442_s_at) / RFU RGS16 (11720943_a_at) / Fold change /veh RGS16 (11720943_a_at) / RFU RGS16 (11720944_at) / Fold change /veh RGS16 (11720944_at) / RFU, VPS4B / Fold change vs veh, VPS4B / RFU, CREB1 / Fold change vs veh, CREB1 / RFU, DNAJC13 / Fold change vs veh, DNAJC13 / RFU, GNAQ / Fold change vs veh, GNAQ / RFU, CDK5R1 / Fold change vs veh, CDK5R1 / RFU, ZRANB3 / Fold change vs veh, ZRANB3 / RFU, CUL4A / Fold change vs veh, CUL4A / RFU, CCNY / Fold change vs veh, CCNY / RFU, UFL1 / Fold change vs veh, UFL1 / RFU, COG3 / Fold change vs veh, COG3 / RFU, DIAPH2 / Fold change vs veh, DIAPH2 / RFU, SKA2 / Fold change vs veh, SKA2 / RFU, AFF3 / Fold change vs veh, AFF3 / RFU, LMF1 / Fold change vs veh, LMF1 / RFU, IPO11 / Fold change vs veh, IPO11 / RFU, DFFB / Fold change vs veh, DFFB / RFU, FOXP1 / Fold change vs veh, FOXP1 / RFU, CARD8 / Fold change vs veh, CARD8 / RFU, STRN3 / Fold change vs veh, STRN3 / RFU, ADK / Fold change vs veh, ADK / RFU, RASSF2 / Fold change vs veh, RASSF2 / RFU, WIPF1 / Fold change vs veh, WIPF1 / RFU, LARP1B / Fold change vs veh, LARP1B / RFU, RASA1 / Fold change vs veh, RASA1 / RFU, RB1 / Fold change vs veh, RB1 / RFU, PPFIA1 / Fold change vs veh, PPFIA1 / RFU, MAT2A / Fold change vs veh, MAT2A / RFU, CCT5 / Fold change vs veh, CCT5 / RFU, WDR92 / Fold change vs veh, WDR92 / RFU, CUX1 / Fold change vs veh, CUX1 / RFU, TTC7A / Fold change vs veh, TTC7A / RFU, TMEM135 / Fold change vs veh, TMEM135 / RFU, DEPTOR / Fold change vs veh, DEPTOR / RFU, CPM / Fold change vs veh, CPM / RFU, DNAJB6 / Fold change vs veh, DNAJB6 / RFU, CACNA2D3 / Fold change vs veh, CACNA2D3 / RFU, DTX4 / Fold change vs veh, DTX4 / RFU, TFCP2 / Fold change vs veh, TFCP2 / RFU, GMCL1 /// GMCL1P1 / Fold change vs veh, GMCL1 /// GMCL1P1 / RFU, AEBP2 / Fold change vs veh, AEBP2 / RFU, SNHG1 /// SNORD22 /// SNORD25 /// SNORD26 /// SNORD27 /// SNORD28 /// SNORD29 /// SNORD31 / Fold change vs veh, SNHG1 /// SNORD22 /// SNORD25 /// SNORD26 /// SNORD27 /// SNORD28 /// SNORD29 /// SNORD31 / Fold change (Aza/veh), C12orf56 (ProbeSet 11735607_a_at) / Fold change (ACY-1035/veh), C12orf56 (ProbeSet 11735607_a_at) / Fold change (Aza/veh), FGFR1OP (ProbeSet 11751329_s_at) / Fold change (ACY-1035/veh), FGFR1OP (ProbeSet 11751329_s_at) / Fold change (Aza/veh), VPS36 (ProbeSet 11739960_a_at) / Fold change (ACY-1035/veh), VPS36 (ProbeSet 11739960_a_at) / RFU SYPL1 (11715823_x_at) / Fold change /veh SYPL1 (11715823_x_at) / RFU IGFBP7 (11715501_s_at) / Fold change /veh IGFBP7 (11715501_s_at) / RFU REEP3 (11722064_at) / Fold change /veh REEP3 (11722064_at) / RFU IGLL1 (11728026_x_at) / Fold change /veh IGLL1 (11728026_x_at): dose or concentration left out as unconfirmed
Details: MV-4-11 cells, 48 hours

Structure (SMILES): Nc1ncn([C@@H]2O[C@H](CO)[C@@H](O)[C@H]2O)c(=O)n1 [azacitidine]
- RFU C10orf10 (11716522_x_at): 45.56 RFU
